Experimental findings from patent US20250304593A1 (Skyhawk Therapeutics, Inc., priority 2022, published 2025) are described below.

Assay [1] relates to ATXN3 transcripts containing exon 4 (E4E5). As to the kind of experiment: ATXN3 quantitative splicing assay (qPCR, E4E5 primers/probe detecting transcripts containing exon 4). The assay is classed as cell-based. As to conditions: Homo sapiens, SK-N-MC cells, 24 h treatment. On the procedure: Human neuroblastoma SK-N-MC cells were plated in 384-well plates at 20,000 cells/well. Twenty-four hours after plating, cells were treated with compounds for 24 h at appropriate concentrations ranging from 30.M to 0.6 nM (0.300 DMS0). Treated cells were lysed in 15.L of lysis buffer, and cDNA was synthesized using the Fast Advanced Cells-to-Ct kit. Two L of each cDNA was used in qPCR reactions to confirm the exon 4 skipped transcripts of ATXN3. A second set of primers/probe E4E5 was used to detect the transcripts containing exon 4. The third set of primers/probe E8E9 was used to detect total gene level of ATXN3. The qPCR reactions were prepared in 384-well plates in 10 L volume, using TaqMan™ Fast Advanced Master Mix with primers and probes shown in the table below. Reactions were run in a Quant Studio 6 qPCR instrument with default settings.
The primers and probes are listed below in Table 4.

The next assay relates to total ATXN3 protein. Put plainly: ATXN3 total protein assay (Mesoscale Discovery). The assay is classed as cell-based, Human. Particulars: SK-N-MC cells, 48 hours incubation, MSD assay; read-out: ATXN3 Potency - Protein IC50. On the procedure:
Human neuroblastoma SK-N-MC cells were seeded at 10,000 cells/well in 384 well plates one day prior to compound treatment. The concentrations of compounds were tested at appropriate doses ranging from 30 µM to 0.6 nM. After incubation for 48 hours, the cells were lysed with 25.L of lysis buffer containing protease inhibitors, and total ATXN3 protein levels were assessed by Mesoscale Discovery (MSD) assay developed with one pair of anti-ATXN3 antibodies. The capture and detect antibodies were raised in mouse and rabbit respectively. Anti-rabbit MSD-ST antibody was used for secondary antibody.
ATXN3 recombinant protein was used for standards. The readouts were captured with 35 μL of MSD read buffer and multi-array 384-well high binding plates.

For a further assay, the system named is ATXN3-HiBiT protein. As to the kind of experiment: ATXN3 HiBiT assay (luminescence, Kelly-ATXN3-HiBiT cell line). As to conditions: Kelly-ATXN3-HiBiT cells, read out 48 h after addition of compound. The class given is cell-based. From the text:
To monitor ATXN3 protein levels by luminescence, a Kelly-ATXN3-HiBiT cell line with homozygous knock-in of HiBiT at the C-terminus of the endogenous ATXN3 gene was used (knock-in of the HiBiT-tag coding sequence SEQ ID NO. 14: 5′[…]3′ into exon 11 of ATXN3 -position 1114 of ATXN3 RefSeq NM_004993.6). Manipulations of the Kelly-ATXN3-HiBiT cell line that result in downregulation of the ATXN3-HiBiT protein (through modulation of ATXN3-HiBiT pre-mRNA splicing) can be followed by monitoring the luminescence signal of the HiBiT tag using the Nano Glo HiBiT Lytic Detection System (Promega, #N3050). Kelly-ATXN3-HiBiT cells were maintained in RPMI 1640 w/Glutamax (Gibco, #61870010), 10% FBS (Sigma Aldrich, #F8687), 1% Penicillin/Streptomycin (Gibco, #15140-122) at 37° C., 5% CO2. To assess HiBiT-luminescence signal upon compound treatment, 2000 Kelly-ATXN3-HiBiT cells were seeded per well in 384 plate format. Compounds were added 24 h after seeding. ATXN3-HiBiT-luminescence signal was read out 48 h after addition of the compound using the Nano Glo HiBiT Lytic Detection System (Promega, #N3050) according to the manufacturer's instructions. To control for cell viability, an identically prepared sister plate was read out with the CellTiter-Glo® 2.0 Assay (Promega, #G9243) according to the manufacturer's instructions. Fold changes of ATXN3-HiBiT-luminescence and of CellTiter-Glo viability signals were calculated relative to a DMSO control condition.
(HiBiT is a short tag that completes a luciferase, so light tracks the accessible tagged protein.)

Turning to `CC(N)Cc1cc2nc(Cl)nc(NCc3ccncc3)c2o1` (centres unmarked) [Compound 1, 6-(2-aminopropyl)-2-chloro-N-(pyridin-4-ylmethyl)furo [3,2-d]pyrimidin-4-amine], the IC50 (in assay [1]; with total ATXN3 protein) was 10000 to 40000 nM in each case.
Consider `Clc1nc(NCc2ccncc2)c2occc2n1` [Compound 3, [(4-pyridyl)methyl](5-chloro-1-oxa-4,6-diaza-7-indenyl)-amine], for which the IC50 (in assay [1]; with total ATXN3 protein) was 10000 to 40000 nM in each case.
In the case of `C[C@H](F)[C@H](N)Cc1oc2c(NCc3ccco3)nc(Cl)nc2c1Cl` [Compound 16, 2-[(2R,3S)-2-amino-3-fluoro-butyl]-3,5-dichloro-7-(furfur-ylamino)-1-oxa-4,6-diaza-indene], the results for the IC50 (in assay [1]; with total ATXN3 protein) were 0.01 to 100 nM and 101 to 500 nM, respectively. Also, the 50% effective concentration (EC50) with ATXN3-HiBiT protein is 0.01 to 100 nM.
For `C#Cc1c(C[C@@H](N)[C@H](C)F)oc2c(NCc3cccs3)nc(Cl)nc12` [Compound 13, 6-[(2R,3S)-2-amino-3-fluorobutyl]-2-chloro-7-ethynyl-N-(thiophen-2-ylmethyl)furo[3,2-d]pyrimidin-4-amine], the IC50 (in assay [1]; in the assay on total ATXN3 protein) was 0.01 to 100 nM each time. Further, the EC50 in the assay on ATXN3-HiBiT protein lay in the range of 0.01 to 100 nM.
As for `Cc1c(C[C@H](C)N)oc2c(NCc3cccs3)nc(Cl)nc12` [Compound 11, 2-[(S)-2-aminopropyl]-5-chloro-3-methyl-7-thenyl-amino-1-oxa-4,6-diaza-indene], the IC50 (in assay [1]; with total ATXN3 protein) was 501 to 5000 nM throughout.
Turning to `C[C@H](F)[C@H](N)Cc1oc2c(NCc3cccs3)nc(Cl)nc2c1-c1ncco1` [Compound 34, 6-[(2R,3S)-2-amino-3-fluorobutyl]-2-chloro-7-(1,3-oxazol-2-yl)-N-(thiophen-2-ylmethyl)furo[3,2-d]pyrimidin-4-amine], the IC50 in assay [1] was in the range of 501 to 5000 nM.
Consider `C#Cc1nc(NCc2cccs2)c2oc(C[C@@H](N)[C@H](C)F)c(C#C)c2n1` [Compound 26], for which the IC50 (in assay [1]; with total ATXN3 protein) was 101 to 500 nM each time. The EC50 in the assay with ATXN3-HiBiT protein is 101 to 500 nM.
As for `C[C@H](F)[C@H](N)Cc1oc2c(NCc3cccs3)nc(Cl)nc2c1Br` [Compound 15, 2-[(2R,3S)-2-amino-3-fluoro-butyl]-3-bromo-5-chloro-7-thenylamino-1-oxa-4,6-diazaindene], the IC50 in assay [1] lay within 0.01 to 100 nM; in the assay with total ATXN3 protein, 101 to 500 nM. Moreover, the half-maximal effective concentration (EC50) with ATXN3-HiBiT protein fell in the range of 101 to 500 nM.
In the case of `C[C@H](F)[C@H](N)Cc1oc2c(NCc3ccccc3)nc(Cl)nc2c1Br` [Compound 19, 2-[(2R,3S)-2-amino-3-fluoro-butyl]-7-benzylamino-3-bromo-5-chloro-1-oxa-4,6-diazaindene], the IC50 (in assay [1]; in the assay on total ATXN3 protein) was 101 to 500 nM each time. In the assay with ATXN3-HiBiT protein, this compound gave an EC50 of 501 to 5000 nM.
On to `C[C@H](N)Cc1oc2c(NCc3cccs3)nc(Cl)nc2c1Br` [Compound 32, 6-[(2S)-2-aminopropyl]-7-bromo-2-chloro-N-(thiophen-2-ylmethyl)furo[3,2-d]pyrimidin-4-amine], for which the half-maximal inhibitory concentration (IC50) (in assay [1]; in the assay with total ATXN3 protein) was 101 to 500 nM throughout. In addition, the EC50 in the assay with ATXN3-HiBiT protein is 101 to 500 nM.
Regarding `C[C@H](F)[C@H](N)Cc1oc2c(NCc3nccs3)nc(Cl)nc2c1Br` [Compound 18, 2-[(2R,3S)-2-amino-3-fluoro-butyl]-3-bromo-5-chloro-7-{[(1,3-thiazol-2-yl)methyl]-amino}-1-oxa-4,6-diaza-indene], the IC50 (in assay [1]; with total ATXN3 protein) was 101 to 500 nM throughout. Also, in the assay on ATXN3-HiBiT protein, the half-maximal effective concentration (EC50) was 101 to 500 nM.
Consider `Cc1coc2c(NCc3ccco3)nc(Cl)nc12` [Compound 10, (furfuryl)(5-chloro-3-methyl-1-oxa-4,6-diaza-7-indenyl)-amine], for which the IC50 (in assay [1]; in the assay with total ATXN3 protein) was 501 to 5000 nM throughout.
Consider `Cc1c(C[C@H](C)N)oc2c(NCc3ccco3)nc(Cl)nc12` [Compound 8, 2-[(S)-2-aminopropyl]-5-chloro-7-(furfurylamino)-3-methyl-1-oxa-4,6-diaza-indene], for which the half-maximal inhibitory concentration (IC50) (in assay [1]; in the assay with total ATXN3 protein) was 501 to 5000 nM throughout.
With `C[C@H](F)[C@H](N)Cc1oc2c(NCc3ccco3)nc(Cl)nc2c1Br` [Compound 14, 2-[(2R,3S)-2-amino-3-fluoro-butyl]-3-bromo-5-chloro-7-(furfurylamino)-1-oxa-4,6-diazaindene], the half-inhibitory concentration (IC50) (in assay [1]; in the assay on total ATXN3 protein) was 0.01 to 100 nM in each case. Further, the EC50 in the assay on ATXN3-HiBiT protein was 0.01 to 100 nM.
Regarding `C[C@H](F)[C@H](N)Cc1oc2c(NCc3ccncc3)nc(Cl)nc2c1Br` [Compound 20, 2-[(2R,3S)-2-amino-3-fluoro-butyl]-3-bromo-5-chloro-7-{[(4-pyridyl)methyl]amino}-1-oxa-4,6-diazaindene], the values for the IC50 (in assay [1]; with total ATXN3 protein) were 0.01 to 100 nM and 101 to 500 nM, respectively. For the same compound, in the assay on ATXN3-HiBiT protein, the EC50 is 0.01 to 100 nM.
With `C#Cc1nc(NCc2ccco2)c2oc(C[C@@H](N)[C@H](C)F)c(Br)c2n1` [Compound 28, 2-[(2R,3S)-2-amino-3-fluoro-butyl]-3-bromo-5-ethynyl-7-(furfurylamino)-1-oxa-4,6-diazaindene], the half-maximal inhibitory concentration (IC50) (in assay [1]; in the assay on total ATXN3 protein) was 101 to 500 nM throughout. This compound also gave an EC50 in the assay on ATXN3-HiBiT protein of 101 to 500 nM.
As for `C/C=C/c1cc2nc(Cl)nc(NCc3ccncc3)c2o1` [Compound 6], the IC50 (in assay [1]; in the assay with total ATXN3 protein) was 10000 to 40000 nM in each case.
Take `Cc1c(C[C@H](C)N)oc2c(NCc3nccs3)nc(Cl)nc12` [Compound 7]: the half-inhibitory concentration (IC50) (in assay [1]; in the assay on total ATXN3 protein) was 10000 to 40000 nM each time.
In the case of `Cc1coc2c(NCc3nccs3)nc(Cl)nc12` [Compound 9, [(1,3-thiazol-2-yl)methyl](5-chloro-3-methyl-1-oxa-4,6-diaza-7-indenyl)amine], the IC50 (in assay [1]; in the assay with total ATXN3 protein) was 10000 to 40000 nM in each case.
Turning to `C[C@H](F)[C@H](N)Cc1oc2c(NCc3cccs3)nc(Cl)nc2c1Cl` [Compound 17, 2-[(2R,3S)-2-amino-3-fluoro-butyl]-3,5-dichloro-7-thenyl-amino-1-oxa-4,6-diazaindene], the IC50 (in assay [1]; with total ATXN3 protein) was 101 to 500 nM in each case. In the assay with ATXN3-HiBiT protein, this compound returned an EC50 of 101 to 500 nM.
Regarding `C[C@H](N)Cc1oc2c(NCc3ccco3)nc(Cl)nc2c1Br` [Compound 33, 2-[(S)-2-aminopropyl]-3-bromo-5-chloro-7-(furfur-ylamino)-1-oxa-4,6-diaza-indene], the IC50 in assay [1] was in the range of 101 to 500 nM; in the assay on total ATXN3 protein it was 0.01 to 100 nM. In the assay with ATXN3-HiBiT protein, the EC50 was 0.01 to 100 nM.
As for `C/C=C/c1cc2nc(Cl)nc(NCc3ccccc3)c2o1` [Compound 5, N-benzyl-2-chloro-6-(prop-1-en-1-yl)furo[3,2-d]pyrimidin-4-amine], the IC50 (in assay [1]; in the assay with total ATXN3 protein) was 10000 to 40000 nM throughout.
Regarding `C#Cc1nc(NCc2cccs2)c2oc(C[C@@H](N)[C@H](C)F)c(Br)c2n1` [Compound 27, 6-[(2R,3S)-2-amino-3-fluorobutyl]-7-bromo-2-ethynyl-N-(thiophen-2-ylmethyl)furo[3,2-d]pyrimidin-4-amine], the 50% inhibitory concentration (IC50) (in assay [1]; in the assay with total ATXN3 protein) was 101 to 500 nM in each case. Moreover, the EC50 in the assay on ATXN3-HiBiT protein lay in the range of 101 to 500 nM.
Turning to `CC(N)Cc1cc2nc(Cl)nc(NCc3ccccc3)c2o1` (centres unmarked) [Compound 2, 2-(2-aminopropyl)-7-benzyl-amino-5-chloro-1-oxa-4,6-diazaindene], the IC50 (in assay [1]; with total ATXN3 protein) was 10000 to 40000 nM throughout.
Regarding `C#Cc1c(C[C@@H](N)[C@H](C)F)oc2c(NCc3ccco3)nc(Cl)nc12` [Compound 12, 2-[(2R,3S)-2-amino-3-fluoro-butyl]-5-chloro-3-ethynyl-7-(furfurylamino)-1-oxa-4,6-diazaindene], the IC50 (in assay [1]; with total ATXN3 protein) was 0.01 to 100 nM throughout. In the assay on ATXN3-HiBiT protein, this compound registered an EC50 of 0.01 to 100 nM.
Take `Clc1nc(NCc2ccccc2)c2occc2n1` [Compound 4, N-benzyl-2-chlorofuro[3,2-d]pyrimidin-4-amine]: the IC50 (in assay [1]; in the assay with total ATXN3 protein) was 10000 to 40000 nM each time.

Usually IC50 stands for the concentration at which inhibition is half-maximal. Broadly, the EC50 is the midpoint of the concentration-response curve. Lower therefore signals greater potency.
